SMILES strings stand for the structures.

One test addresses TET1 (Homo sapiens, UniProt Q8NFU7). The experiment in a line: AlphaScreen of Bc-dependent TET1-VHL ternary complex formation (weaker than TET3; no TET1 degradation in cells). The test is classed as binding. Background: Bead proximity is the source of the signal in Alpha formats.
Test [1] has as its target TET3 (Tet methylcytosine dioxygenase 3) (Homo sapiens, UniProt O43151). The experiment in a line: AlphaScreen of Bc-dependent TET3-VHL ternary complex formation; supported by co-IP and degradation of TET3 in human MDMs. The class given is binding.

TET1, sequence (Q8NFU7 1418-2136 limits assumed): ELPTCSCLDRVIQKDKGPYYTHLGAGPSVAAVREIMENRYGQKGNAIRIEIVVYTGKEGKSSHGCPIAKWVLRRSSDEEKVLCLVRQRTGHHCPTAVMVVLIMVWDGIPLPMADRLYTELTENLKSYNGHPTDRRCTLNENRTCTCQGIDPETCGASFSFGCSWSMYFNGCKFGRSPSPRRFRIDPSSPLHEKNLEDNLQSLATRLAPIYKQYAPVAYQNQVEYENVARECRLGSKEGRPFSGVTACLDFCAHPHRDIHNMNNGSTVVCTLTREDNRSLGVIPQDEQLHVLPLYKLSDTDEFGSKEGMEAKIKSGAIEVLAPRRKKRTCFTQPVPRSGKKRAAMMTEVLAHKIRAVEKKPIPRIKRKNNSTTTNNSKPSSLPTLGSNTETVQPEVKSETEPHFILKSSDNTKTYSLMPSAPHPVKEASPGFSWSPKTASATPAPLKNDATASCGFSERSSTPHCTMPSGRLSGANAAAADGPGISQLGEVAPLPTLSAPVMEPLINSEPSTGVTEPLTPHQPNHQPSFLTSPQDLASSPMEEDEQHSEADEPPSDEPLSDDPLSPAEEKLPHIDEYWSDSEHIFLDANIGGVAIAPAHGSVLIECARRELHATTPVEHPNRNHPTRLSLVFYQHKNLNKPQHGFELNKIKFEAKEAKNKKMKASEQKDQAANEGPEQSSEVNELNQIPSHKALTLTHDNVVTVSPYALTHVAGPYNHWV
TET1, sequence (P40337 whole entry partner): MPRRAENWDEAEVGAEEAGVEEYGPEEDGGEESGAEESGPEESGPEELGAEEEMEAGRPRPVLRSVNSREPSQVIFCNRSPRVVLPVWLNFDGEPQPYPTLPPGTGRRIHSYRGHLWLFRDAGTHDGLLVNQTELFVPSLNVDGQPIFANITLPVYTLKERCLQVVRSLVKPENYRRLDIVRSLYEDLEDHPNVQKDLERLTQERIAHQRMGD
TET3 (Tet methylcytosine dioxygenase 3), sequence (O43151 850-1795 limits assumed): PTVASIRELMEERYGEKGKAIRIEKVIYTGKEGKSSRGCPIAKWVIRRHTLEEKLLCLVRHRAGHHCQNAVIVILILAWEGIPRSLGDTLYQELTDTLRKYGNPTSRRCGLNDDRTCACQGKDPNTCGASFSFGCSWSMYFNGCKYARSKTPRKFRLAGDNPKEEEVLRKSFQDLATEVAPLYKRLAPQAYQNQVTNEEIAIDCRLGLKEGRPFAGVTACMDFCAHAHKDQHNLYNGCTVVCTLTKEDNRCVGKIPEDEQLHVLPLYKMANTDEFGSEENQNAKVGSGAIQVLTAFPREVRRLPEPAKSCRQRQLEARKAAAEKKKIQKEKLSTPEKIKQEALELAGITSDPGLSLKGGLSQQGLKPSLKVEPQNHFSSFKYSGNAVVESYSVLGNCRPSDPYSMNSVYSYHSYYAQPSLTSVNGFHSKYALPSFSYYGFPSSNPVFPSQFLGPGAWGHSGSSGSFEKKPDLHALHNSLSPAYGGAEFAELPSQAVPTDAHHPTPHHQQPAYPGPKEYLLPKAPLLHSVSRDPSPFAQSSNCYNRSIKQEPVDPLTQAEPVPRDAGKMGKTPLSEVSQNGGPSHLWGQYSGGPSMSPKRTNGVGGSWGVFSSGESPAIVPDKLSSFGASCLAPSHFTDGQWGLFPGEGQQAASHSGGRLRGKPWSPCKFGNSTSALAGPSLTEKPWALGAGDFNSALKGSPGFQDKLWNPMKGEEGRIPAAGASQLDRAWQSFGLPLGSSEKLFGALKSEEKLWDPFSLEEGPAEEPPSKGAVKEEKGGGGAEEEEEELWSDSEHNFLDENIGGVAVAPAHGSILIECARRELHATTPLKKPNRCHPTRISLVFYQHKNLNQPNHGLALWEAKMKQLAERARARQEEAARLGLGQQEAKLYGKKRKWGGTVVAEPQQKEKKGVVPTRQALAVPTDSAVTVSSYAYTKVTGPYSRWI
TET3 (Tet methylcytosine dioxygenase 3), sequence (P40337 whole entry partner): as the sequence (P40337 whole entry partner) above

The term EC50 denotes the concentration that produces a half-maximal response. A low value points to higher potency in that assay. On to `Nc1nc(=O)n(-c2cccc(-c3ccccc3)c2)cc1Cl` [Bc, Bobcat339], for which the values for the half-maximal effective concentration (EC50) (on TET1; in test [1]) were 8.51 mM and 0.05 mM, respectively.

The values are drawn from article PMC12578387, “TET3 is a common epigenetic immunomodulator of pathogenic macrophages” (The Journal of Clinical Investigation, 2025).
